Measured values reported in PubChem BioAssay (NCI).
Values joined by “and” are separate entries in the source; they are usually repeats but may differ in a detail not shown here. Identical values can stand only once.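 Protocol summary: plate cells (96-well), add compound at 5 concentrations, incubate 48 h, interpolate endpoints linearly. GI50 is the concentration that inhibits growth by half. TGI: concentration producing complete growth inhibition.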

Key:
Assay in all cases: growth of human tumour cells (NCI), 48 h
[1] = test system: EKVX NSCLC
[2] = test system: SNB-78 CNS
[3] = test system: HT29 colon
[4] = test system: LXFL 529 NSCLC
[5] = test system: SNB-75 CNS
[6] = test system: K-562 leukemia
[7] = test system: UO-31 renal
[8] = test system: 786-0 renal
[9] = test system: SF-539 CNS
[10] = test system: ACHN renal

| SMILES | TGI [1] | TGI [2] | TGI [3] | TGI [4] | TGI [5] | TGI [6] | TGI [7] | TGI [8] | TGI [9] | GI50 [1] | GI50 [3] | GI50 [10] | TGI [10] | GI50 [5] | GI50 [6] | GI50 [7] | GI50 [8] | GI50 [9] | GI50 [4] |
| --- | --- | --- | --- | --- | --- | --- | --- | --- | --- | --- | --- | --- | --- | --- | --- | --- | --- | --- | --- |
| Nc1c(Cl)ncnc1NCCCCCCCCCCCCNc1ncnc(Cl)c1N | 98.1 µM | 3.54 µM | 49.8 µM | 20.5 µM | 7.16 µM | > 100 µM | 18.3 µM | 66.1 µM | 30.3 µM |  |  |  |  |  |  |  |  |  |  |
| CC(=O)C1=C(O)C=C2Oc3c(C(=O)/C=C/c4cc(Cl)cc(Cl)c4)c(O)c(C)c(O)c3[C@]2(C)C1=O | 2.27 µM |  | 1.56 µM |  | 4.06 µM | 15 µM | 1.03 µM | 2.32 µM | 2.26 µM | 0.444 µM | 0.47 µM | 0.513 µM | 14.2 µM | 1.66 µM | 0.497 µM | 0.392 µM | 0.534 µM | 0.552 µM |  |
| CN(/N=C\c1ccnc2ccccc12)c1ccc([N+](=O)[O-])cc1 | > 100 µM | > 100 µM | > 100 µM | > 100 µM | > 100 µM | > 100 µM |  | > 100 µM | > 100 µM |  |  |  | > 100 µM |  |  |  |  |  |  |
| Cc1cc2c(-c3nc4ccccn4c3N)c(O)c(O)cc2c(O)c1-c1c(C)cc2c(-c3nc4ccccn4c3N)c(O)c(O)cc2c1O | > 25 µM |  | > 25 µM |  | > 25 µM | > 25 µM | > 25 µM | > 25 µM | 20.9 µM | 0.965 µM | 0.979 µM | 1.63 µM | > 25 µM | 1.02 µM | 1.02 µM | 1.12 µM | 2.82 µM | 0.707 µM |  |
| O=[N+]([O-])c1cc([N+](=O)[O-])c(Nn2c3ccccc3c3ccccc32)c([N+](=O)[O-])c1 | 7.64 µM |  | 8.43 µM and 3.43 µM |  | 0.92 µM | > 100 µM | 6.63 µM and 0.916 µM | 13.1 µM and 15.9 µM | 15.8 µM and 5.1 µM | 0.328 µM | 0.323 µM |  | 8.49 µM | 0.204 µM | 0.297 µM | 0.245 µM | 0.324 µM | 0.335 µM |  |
| CC(=O)[C@H]1CCC/C=C/[C@@H]2C[C@H](O)C[C@H]2[C@H](O)/C=C/C(=O)O1 | > 100 µM |  | 1.44 µM |  | > 100 µM | > 100 µM | > 100 µM | 0.392 µM | > 100 µM | 0.932 µM | 0.253 µM | 0.674 µM | > 26.4 µM | 0.237 µM | 0.579 µM | 0.296 µM | 0.193 µM | 1.01 µM |  |
| CCOC(=O)C(C#N)C1=CC(=O)C(=O)c2ccc(O)cc21 (configuration not stated) | > 100 µM |  | > 100 µM |  | > 100 µM | > 100 µM | > 100 µM | > 100 µM | > 100 µM |  |  |  | > 100 µM |  |  |  |  |  |  |
| CC(=O)[CH-]C(=O)c1ccccc1.CC(=O)[CH-]C(=O)c1ccccc1.CC(=O)[CH-]C(=O)c1ccccc1.[Nd+3].[OH3+] | > 100 µM |  | > 100 µM | > 100 µM | 43.4 µM | > 100 µM | > 100 µM | > 100 µM | > 100 µM | 60.9 µM | 30 µM | 48.6 µM | > 100 µM | 6.66 µM | 42.6 µM | > 100 µM | 37 µM | 52.9 µM | 71.1 µM |
